Assay [1] concerns Cholesterinesterase (Cholesterinesterhydrolase EC 3.1.1.13). As to the kind of experiment: Cholesterol esterase test with cholesterol oleate as substrate (Bergmeyer UV method, comparison). Type of assay: biochemical. An excerpt:
Bekannt ist die photometrische Bestimmung im UV. Freigesetztes Cholesterin wird mittels Cholesterinoxidase zu Cholestenon oxidiert, das anhand der Absorptionszunahme bei λ = 240 nm gemessen werden kann (Bergmeyer, Methods of Enzymatic Analysis, 3th.Ed., Vol.II, S.168). Alternativ wird das bei dieser Oxidation gebildete Wasserstoff peroxid durch eine Farb-Reaktion bestimmt (Stähler, Med.Lab. 30, 29 (77)). Diese Methoden sind umständlich und ebenfalls störanfällig.
(§1) Zum Vergleich wurde der Cholesterinesterase-Test mit Cholesterinoleat als Substrat durchgeführt (Bergmeyer, Methods of Enzymatic Analysis, 3th.Ed., Vol.II, S. 168) und mit dem Farbtest gemäß Beispiel 2 verglichen und der Korrelationskoeffizient ermittelt. Die Ergebnisse zeigen Tabelle I und Figur 1. TABELLE I

For assay [2] the test system is unchanged. As to the kind of experiment: Cholesterol esterase colour test according to Example 2 (photometric release of resorufin). Type of assay: biochemical. The settings on record: λ = 571 nm, 25°C, 0,1 M Kalium-Phosphat-Puffer pH 6,8. As to the method: 2 mg Cholesterin-glutarsäureresorufinester werden in 0,5 ml Dioxan und 0,5 ml Thesit® gelöst.
Zur Messung werden 850 µl 0,1 M Kalium-Phosphat-Puffer pH 6,8 und 50 µl der oben beschriebenen Substratlösung in einer Küvette gut durchgemischt. Nach Zugabe von 100 µl Probe (Enzymlösung) wird ΔE/min photometrisch bei λ = 571 nm bestimmt (Temperatur = 25°C).
Bei Auswertung über einen Standard bekannter Cholesterinesteraseaktivität wird die Cholesterinesteraseaktivität der Probe wie folgt berechnet [formula] Eine Berechnung der Cholesterinesteraseaktivität der Probe ist auch nach folgender Formel möglich: [formula] Vges : Gesamtvolumen des Testansatzes [cm³] VProbe : Volumen der Probe [cm³] ε : Extinktionskoeefizient des Chromogens bei 571 nm d : Schichtdicke der Küvette [cm] ΔE/min : Extinktionsänderung pro Minute bei 571 nm
Bei den genannten Reaktionsbedingungen beträgt der Extinktionskoeffizient ε = 60,00·cm² ·µmol⁻¹.
as §1

For `CCCCCCCC/C=C\CCCCCCCC(=O)O[C@H]1CC[C@@]2(C)C(=CC[C@H]3[C@@H]4CC[C@H]([C@H](C)CCCC(C)C)[C@@]4(C)CC[C@@H]32)C1` [Cholesterin-Oleat, Cholesterinoleat], the ΔE/min in assay [1] (Konz. 1,0 mg/ml) was 0,007; in assay [1] (Konz. 1,3 mg/ml), 0,011; in assay [1] (Konz. 2,0 mg/ml), 0,015; in assay [1] (Konz. 5,0 mg/ml), 0,036; in assay [1] (Konz. 6,6 mg/ml) it was 0,045; in assay [1] (Konz. 10,0 mg/ml), 0,072.

Regarding `CC(C)CCC[C@@H](C)[C@H]1CC[C@H]2[C@@H]3CC=C4C[C@@H](OC(=O)CCCC(=O)Oc5ccc6nc7ccc(=O)cc-7oc6c5)CC[C@]4(C)[C@H]3CC[C@]12C` [Cholesterin-Glutarsäure-Resorufinester, Cholesterin-glutarsäure-resorufinester], the ΔE/min in assay [2] (Konz. 1,0 mg/ml) is on record as 0,009; in assay [2] (Konz. 1,3 mg/ml), 0,013; in assay [2] (Konz. 2,0 mg/ml), 0,015; in assay [2] (Konz. 5,0 mg/ml), 0,033; in assay [2] (Konz. 10,0 mg/ml), 0,071.

(Values after patent EP0328029A2, “Cholesterol-esterase colour substrate” (BOEHRINGER MANNHEIM GMBH, priority 1988, dated 1989).)
